From patent US7211566B2 (Universite De Sherbrooke, priority 2003, dated 2007)
Square brackets hold non-standard residues; d marks the D form. Peptide text beside a SMILES is read from it. Oic = O=C(O)[C@@H]1C[C@@H]2CCCC[C@@H]2N1; d2Nal = N[C@H](Cc1ccc2ccccc2c1)C(=O)O; αMeF = C[C@](N)(Cc1ccccc1)C(=O)O; Orn = NCCC[C@H](N)C(=O)O

Experiments:
STZ diabetic mice = experiment: Hot plate test, type-1 diabetic hyperalgesia; assay type: in vivo; details: STZ diabetic mice, i.p., at time of maximal inhibition (20 min)
Protocol: Male CD-1 mice weighting between 25–30 g (Charles River Breeding Laboratory, St-Constant, QC, Canada) were used. The mice were housed four by cage with free access to food and water. They were maintained under conditions of standard lighting, (alternating 12-h light/dark cycle), temperature (22±0.5° C.) and humidity (60±10%) with food and water available at libitum. Animals were used only once in a given experiment. Experiments were conducted between 10:00 and 18:00 h.
Streptozotocin (Pharmacia & Upjohn Incorporation, Mississauga, ON, Canada) was dissolved in saline at a pH of 4.5 and administered to mice i.p. The BKB1 agonist desArg^9BK and compound c were dissolved in saline and administered to mice i.p.
Insulin-dependent diabetes mellitus (IDDM) was induced in mice using STZ. Male CD-1 mice were given a single high i.p. dose of STZ (200 mg/kg) (McEvoy et al., 1984, J Clin Invest 74, 715–722). […] Blood glucose levels were determined with an automatic analyzer (Glucometer Elite XL, Bayer Incorporation, Toronto, Ontario, Canada) using glucose oxidase/potassium ferricyanide reagent strips. […]
The hot plate test was adapted from the technique of Eddy and Leimbach (1953, J Pharmacol Exp Ther 107, 385–389). […] When the pain threshold is reached the animal starts to react by licking its hind paw or to jump, and the reaction time is recorded with a built-in timer, with a maximum cut-off time of 30 s to avoid tissue damage. […]
The effect of the selected drugs on nociception was determined by converting the hot plate, the plantar stimulation, the tail immersion or the tail flick responses from latencies into MPE (Maximum Percent Effect) according to the following equation (Bhargava and Zhao, 1996, Neuropeptides, 30, 219–223): […]
In all tests, pre-treatment latencies were determined three times with an interval of 24 h starting three days before the injection of STZ or saline and the mean was calculated in order to obtain stable pre-drug response latency. […]

[1] = Circulatory half-life in rat plasma after bolus i.v. administration; assay type: in vivo; details: iv, 2.5 mg/kg body weight, direct i.v. jugular administration, anaesthetized rats
Protocol: Rats were anesthetized with the administration of ketamine/xylazine (100 mg/ml:0.1 ml/100 g, i.p.). For ex vivo analysis, blood was collected by cardiac puncture and placed into 5 ml vacutainer tubes containing 0.5 ml of 0.1 M Na2CO3 (for blood and plasma). For in vivo analysis, the drug was administered by i.v. bolus (2.5 mg/kg body weight) in the jugular vein of anesthetized rats and blood was collected as described above after 2, 5, 15, 30, 60, 120, 180 and 240 min.
(§1) Quantitative analysis of the extracted compound and standard controls was carried out using an Agilent reverse-phase HPLC (model 1100) coupled to a 4.6×150 mm Zorbax 300SB-C18 column (5 μm particle size) and equipped with a diode array detector. The peptides were eluted at a flow rate of 0.7 ml/min. with a linear gradient ranging from 5 to 65% of acetonitrile/TFA 0.05%/water over 32 min. at 25° C. The elution positions and quantification of compounds were determined by following the absorbance at 226 nm.
Concentrations of the peak's products were estimated using a computer software program (Chemstation for LC 3D, Agilent) that controlled all the chromatography operations.

[2] = Ex vivo stability in rat tissue extracts from liver, lung and kidney (HPLC); assay type: in vitro ADME; details: Wistar, after 24 hours, read-out: parent remaining
Protocol: Liver, lung and kidneys were collected from Wistar rats and resuspended in nine volume of PBS. The tissues were homogenized for 3×15 sec. on ice with a Polytron homogenizer and were centrifuged at 3000 rpm for 15 min. at 4° C. The supernatant was collected and kept at −80° C. until used.
Stability studies were initiated by adding the peptide […] to 50–100 μl of either plasma, serum or extract (10–100 μM final concentration) and incubated for 10 min to 24 hours at 37° C. The reaction was stopped by the addition of ice-cold acetonitrile (75% final concentration) containing 10 μM Lys-desArg^9BK (which serves as an internal control). The samples were vortexed and centrifuged at 13000 rpm for 20 min at 4° C. in a microfuge. The clear supernatant was transferred to a 1 ml tube and the samples were evaporated to dryness by lyophilisation. Finally, the samples were resuspended in 50 μl of HPLC-grade water.
as §1, with “The peptides were eluted at a flow rate of 0.7 ml/min. with a linear gradient ranging from 5 to 65% of acetonitrile/TFA 0.05%/water over 32 min. at 25° C.” left out, “nm. […]” for “nm.”

CC[C@H](C)[C@H](NC(=O)[C@@H](Cc1ccc2ccccc2c1)NC(=O)[C@H](CO)NC(=O)[C@](C)(Cc1ccccc1)NC(=O)CNC(=O)[C@@H]1CCCN1C(=O)[C@@H]1C[C@@H]2CCCC[C@@H]2N1C(=O)[C@H](CCCNC(=N)N)NC(=O)[C@H](CCCN)NC(C)=O)C(=O)O [compound c, Ac-Orn[Oic^2,(α-Me)Phe^5,D-βNal^7,Ile^8]desArg^9BK] (Ac-[Orn]R[Oic]PG[αMeF]S[d2Nal]I-OH)
ID50 (STZ diabetic mice): 0.078 ± 0.003 mg/kg
half-life [1]: > 2 h
remaining at 24 h [2]: > 75%
